{"source": "patent US20250352494A1", "about": "“TRANSDERMAL DELIVERY DEVICE FOR PEPTIDE DELIVERY AND METHODS OF USE” (PassPort Technologies, Inc., priority 2022, published 2025)", "key": {"in vivo [1]": {"test": "in vivo", "conditions": "for bioavailability: 2 mg; for PK Profile: Table 40", "protocol": "(§1) Animal Studies in Rats. […] In vivo PK studies were performed in CD rats (Charles River Laboratories) according to IACUC-approved Animal Protocols. Each dosing formulation was prepared prior to the experiments. The patch was manufactured according to dry patch manufacturing procedure. The animals for transdermal applications were shaved 1 day before the dosing date. The transdermal microporation was applied using the Applicator and Porator. Then, the patch was placed to cover the porated area for 1 day or a designated duration. After the last blood sampling, the patch was collected, and the application site was wiped by paper or cotton to recover the remaining drug on the skin. The blood samples were collected from the tail vein and transferred into K2-EDTA tube at the designated sampling time. The samples were centrifuged at 4° C., and then plasma samples were obtained. All samples were stored at −80° C. freezer until bioassay.\nThe plasma samples were stayed at room temperature for 30 minutes. The plasma (50 μL) was transferred into a 2 mL Eppendorf tube (Protein LoBind), then add 50 μL of Acetonitrile/DMSO (4:1, v/v), and vortex the tube for a couple of seconds. The samples were centrifuged for 15 minutes at 3700 rpm, 4° C. The 150 μL of mobile phase A (0.1% formic acid in water) were put into a new tube, then 50 μL of the supernatant were transferred into the tube and the samples were vortexed for 5 minutes. The supernatant was pulled out and the solution was filtered through a 0.20 μm PTFE membrane into an autosampler vial (LCMSMS)."}, "[2]": {"test": "p3-Alcβ9-19 in mouse plasma (sELISA) after transdermal microporation patch or subcutaneous injection", "type": "in vivo, wild-type mice", "conditions": "mice plasma", "excerpt": "(§2) Animal Studies in Mice. […] The hair was removed prior to the experiments. […] Exp. 21 (2008).\nsELISA method for p3-Alcβ9-19 Analysis."}, "[3]": {"conditions": "rats; reducing sugar formulation (Table 22); 24 hours after application; without microporation", "protocol": "as §1, with “The transdermal microporation was applied using the Applicator and Porator.” left out"}, "in vivo [4]": {"test": "in vivo", "excerpt": "as §2\nIgG was purified with antigen-coupled resin and conjugated to biotin. Horseradish peroxidase-conjugated streptavidine was from Amersham/GE Healthcare (Cat #RPN1051, Little Chalfont, UK), and the tetramethylbenzidine (TMB) microwell peroxidase substrate system was from SeraCare Life Sciences Inc. (Cat #5120-0075, Milford, MA, USA). The mice were anesthetized by using 1% isoflurane, and CSF was collected from the cisterna magna in mice as described above, and then mice were sacrificed.\nDis. (2014) 39, 861-870, p3-Alcβ37- and p3-Alcβ40-specific sELISA systems, described in Hata et al “Decrease in p3-Alcβ37 and p3-Alcβ40, products of Alcadeinβ generated by γ-secretase cleavages, in aged monkeys and patients with Alzheimer's disease” Alzheimers Dement TRCI (2019) 5, 740-750.\nThe next day, the non-binding antibody was removed with wash buffer (0.05% Tween-20 in PBS). The plasma and CSF were diluted 200-fold and 20-fold with EIA buffer (1% BSA, 0.05% Tween-20), respectively. The sample solution was added to 96 well plates and stayed overnight at 4° C. The next day, after washing with wash buffer, purified biotinylated IgG dissolved in PBS was added to […] in each well, and the mixture was kept overnight at 4° C. The next day, the unreacted antibody was washed with wash buffer, streptavidin-HRP (1/5000 in PBS) was added, and the reaction was carried out at 4° C. for 6 to 8 hours. After washing with Wash buffer, TMB color-developing substrate was added, and the mixture was reacted at room temperature for 30 minutes under light-protection. The color development was stopped by adding 1 N H2SO4, and the samples were measured by a plate reader at 450 nm."}, "[5]": {"conditions": "mouse, sc, 30 ug, subcutaneous injection 30 μg"}, "[6]": {"conditions": "mouse, cerebrospinal fluid, sc, 30 ug"}}, "note": "Ends that are not written are not given here.", "data": [{"sequence": "HRGHQPPPEMA [p3-Alcβ9-19]", "values": [{"measurement": "bioavailability", "setting": "in vivo [1]; CD, rat, plasma, iv", "value": 100, "unit": "%"}, {"measurement": "bioavailability", "setting": "in vivo [1]; CD, rat, plasma, oral", "value": 0, "unit": "%"}, {"measurement": "bioavailability", "setting": "in vivo [1]; CD, rat, plasma, other: nasal", "value": 0, "unit": "%"}, {"measurement": "bioavailability", "setting": "in vivo [1]; CD, rat, plasma, other: passive transdermal", "value": 0, "unit": "%"}, {"measurement": "Tmax", "setting": "in vivo [1]; CD, rat, plasma, other: transdermal microporation", "value": "~60", "unit": "min"}, {"measurement": "bioavailability", "setting": "in vivo [1]; CD, rat, plasma, subcutaneous", "value": "120 to 275", "unit": "%"}, {"measurement": "aBA (absolute bioavailability) vs IV (2 mg/body)", "setting": "in vivo [1]; Table 33, optimized formulations for immediate delivery, rats, 400 density, 4 mJ/filament", "value": "about 2000%"}, {"measurement": "PK Profile", "setting": "in vivo [1]; Intravenous injection", "value": "Bolus absorption"}, {"measurement": "PK Profile", "setting": "in vivo [1]; Nasal", "value": "No absorption"}, {"measurement": "PK Profile", "setting": "in vivo [1]; Oral", "value": "No absorption"}, {"measurement": "PK Profile", "setting": "in vivo [1]; Passive Transdermal", "value": "No absorption"}, {"measurement": "PK Profile", "setting": "in vivo [1]; Subcutaneous injection", "value": "Bolus absorption"}, {"measurement": "Absorption", "setting": "in vivo [1]; rats, 5 mg/head, oral, nasal, or passive transdermal routes", "value": "No absorption"}, {"measurement": "Time by which blood concentrations disappeared", "setting": "in vivo [1]; rats, SC injection", "value": "≤ 1", "unit": "h"}, {"measurement": "Relationship between p3-Alcβ9-19 dose and AUC, FIG. 16", "setting": "in vivo [1]; rats, immediate delivery, up to 50 mg of p3-Alcβ9-19 (tested dose)", "value": "liner dose-dependency"}, {"measurement": "PK profiles", "setting": "in vivo [1]; rats, intravenous (IV) and subcutaneous (SC) injections", "value": "rapid absorption and quick elimination"}, {"measurement": "AUC and Cmax versus p3-Alcβ9-19 dose, FIG. 19A/19B", "setting": "in vivo [1]; rats, optimized patch", "value": "increased p3-Alcβ9-19 dose-dependently"}, {"measurement": "Relationship between p3-Alcβ9-19 dose and AUC, FIG. 17", "setting": "in vivo [1]; rats, sustained delivery, up to 25 mg of p3-Alcβ9-19 (tested dose)", "value": "liner dose-dependency"}, {"measurement": "BA (relative bioavailability) vs SC (30 μg/body)", "setting": "[2]; subcutaneous injection 30 μg (reference)", "value": 100, "unit": "%"}, {"measurement": "Cmax", "setting": "[2]; [5]", "value": "25.5 ± 12.5", "unit": "ng/mL"}, {"measurement": "Tmax", "setting": "[2]; [5]", "value": 18.8, "unit": "min"}, {"measurement": "AUC(0-t)", "setting": "[2]; mouse, sc, 30 ug, subcutaneous injection 30 μg, read-out: AUC0-360 (converted)", "value": 9.84, "unit": "ng·h/mL"}, {"measurement": "p3-Alcβ9-19 recovered (drug residual)", "setting": "[3]", "value": "about 100%"}, {"measurement": "BA (relative bioavailability) vs SC (30 μg/body)", "setting": "in vivo [4]; mice CSF, subcutaneous injection 30 μg (reference)", "value": 100, "unit": "%"}, {"measurement": "AUC(0-t)", "setting": "in vivo [4]; [6]", "value": 5.01, "unit": "ng·h/mL"}, {"measurement": "Cmax", "setting": "in vivo [4]; [6]", "value": "14.9 ± 10.7", "unit": "ng/mL"}, {"measurement": "Tmax", "setting": "in vivo [4]; [6]", "value": 15, "unit": "min"}]}]}
